From ChEMBL document CHEMBL1201862, “PubChem BioAssay data set” (2004)
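How tested: cells in 96-well plates exposed to compound for 48 hours at five concentrations. GI50 marks 50% less growth.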 Active and inactive are the calls of the source. Cut-off read from the data, not from the text of the source: active = GI50 up to about 1.1 µM and inactive = higher.

Assays:
Experiment in all cases: growth of human tumour cells (NCI), 48 h
LOX IMVI = tested on: LOX IMVI
DU-145 = tested on: DU-145
MDA-MB-435 = tested on: MDA-MB-435
HOP-62 = tested on: HOP-62
Hs-578T = tested on: Hs-578T
COLO 205 = tested on: COLO 205
KM12 = tested on: KM12
EKVX = tested on: EKVX
NCI-H226 = tested on: NCI-H226
SF-268 = tested on: SF-268
SK-MEL-5 = tested on: SK-MEL-5
A549 = tested on: A549
UO-31 = tested on: UO-31
A498 = tested on: A498
CCRF-CEM = tested on: CCRF-CEM
HOP-92 = tested on: HOP-92
TK-10 = tested on: TK-10
786-0 = tested on: 786-0
SW-620 = tested on: SW-620
OVCAR-4 = tested on: OVCAR-4

Measured: GI50

CC(C)(C)C1=NC(=P(c2ccccc2)(c2ccccc2)c2ccccc2)C(=O)O1
inactive: LOX IMVI > 100 µM | DU-145 > 100 µM | MDA-MB-435 > 100 µM | HOP-62 > 100 µM | Hs-578T > 100 µM | COLO 205 > 100 µM | KM12 > 100 µM | EKVX 22.5 µM | NCI-H226 > 100 µM | SF-268 > 100 µM | SK-MEL-5 > 100 µM | A549 > 100 µM | UO-31 > 100 µM | A498 > 100 µM | CCRF-CEM > 100 µM | HOP-92 > 100 µM | TK-10 > 100 µM | 786-0 > 100 µM | SW-620 > 100 µM

CCOC(=O)C(C)c1nc2cc(N3CCN(C)CC3)c(F)cc2[nH]c1=O (centres undefined)
inactive: DU-145 > 100 µM | MDA-MB-435 > 100 µM | HOP-62 > 100 µM | Hs-578T > 100 µM | COLO 205 > 100 µM | KM12 > 100 µM | EKVX > 100 µM | NCI-H226 > 100 µM | SF-268 > 100 µM | OVCAR-4 > 100 µM | SK-MEL-5 > 100 µM | A549 > 100 µM | UO-31 > 100 µM | A498 > 100 µM | CCRF-CEM > 100 µM | HOP-92 > 100 µM | 786-0 > 100 µM | SW-620 > 100 µM

CCOC(=O)C1C(C(C)C)C2(C#N)C(=N)OC1(C)C2(C#N)C#N (centres undefined)
inactive: LOX IMVI 43.3 µM | DU-145 > 100 µM | MDA-MB-435 35.3 µM | Hs-578T > 100 µM | COLO 205 7.46 µM | KM12 > 100 µM | EKVX 78.3 µM | NCI-H226 56.4 µM | SF-268 > 100 µM | SK-MEL-5 30.5 µM | A549 > 100 µM | UO-31 > 100 µM | A498 > 100 µM | CCRF-CEM 47 µM | HOP-92 21.2 µM | TK-10 > 100 µM | 786-0 54 µM | SW-620 62.1 µM

N#Cc1nc(CSCc2ccccc2)oc1N
inactive: DU-145 > 100 µM | MDA-MB-435 > 100 µM | HOP-62 > 100 µM | Hs-578T > 100 µM | COLO 205 > 100 µM | KM12 > 100 µM | NCI-H226 > 100 µM | SF-268 > 100 µM | OVCAR-4 > 100 µM | A549 > 100 µM | UO-31 > 100 µM | A498 > 100 µM | CCRF-CEM 19.8 µM | HOP-92 > 100 µM | TK-10 > 100 µM | 786-0 > 100 µM | SW-620 > 100 µM

CCCCCCCC(CC(=O)O)OC(=O)CC(CCCCCCC)OC1OC(C)C(O)C(O)C1OC1OC(C)C(O)C(O)C1O (centres undefined)
inactive: LOX IMVI > 100 µM | DU-145 > 100 µM | MDA-MB-435 > 100 µM | HOP-62 > 100 µM | Hs-578T 67.6 µM | COLO 205 > 100 µM | KM12 > 100 µM | EKVX > 100 µM | NCI-H226 > 100 µM | SF-268 > 100 µM | SK-MEL-5 > 100 µM | A549 > 100 µM | UO-31 > 100 µM | A498 > 100 µM | CCRF-CEM 79.4 µM | HOP-92 > 100 µM | 786-0 > 100 µM | SW-620 > 100 µM

Cc1ccc(S(=O)(=O)c2ccsc2NC(=O)C(F)(F)F)cc1
inactive: LOX IMVI 28.2 µM | DU-145 42.6 µM | MDA-MB-435 44.5 µM | HOP-62 34.7 µM | Hs-578T 32.7 µM | COLO 205 10.8 µM | KM12 31.1 µM | EKVX 46.6 µM | NCI-H226 39.7 µM | SF-268 28.3 µM | OVCAR-4 20.6 µM | SK-MEL-5 20.2 µM | A549 34 µM | UO-31 28.9 µM | A498 53 µM | HOP-92 30.9 µM | TK-10 61.1 µM | 786-0 37.6 µM | SW-620 57.3 µM
